Laboratory results published in patent US20250092065A1, “2-(INDAZOL-5-YL)-6-(PIPERIDIN-4-YL)-1,7-NAPHTHYRIDINE DERIVATIVES AND RELATED COMPOUNDS AS MODULATORS FOR SPLICING NUCLEIC ACIDS AND FOR THE TREATMENT OF PROLIFERATIVE DISEASES” (REMIX THERAPEUTICS INC., priority 2022, published 2025).
Where two headings read alike, the source gives them in different places.

What was measured:
Target C = assay: RT-qPCR canonical junction panel assay, Target C mRNA; format: cell-based; conditions: Table 4, read-out: Target C IC50 (decrease in CJ mRNA levels)
In short: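 IC50 is the concentration giving 50% CJ decrease, from a 4-parameter logistic fit of percent response; response derived from ΔΔCt against housekeeper and DMSO over a fixed ΔCt window, with canonical exon-junction qPCR in compound-treated K562 or A673 cells.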

SMN2 mRNA = assay: RT-qPCR splicing assay, SMN2 mRNA; format: cell-based, human; conditions: Homo sapiens, canonical junction qPCR panel, Table 4; read-out: SMN2 IC50 (decrease in CJ mRNA levels)
In short: (§1)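 Junction-specific RT-qPCR read-out: CJ and AJ isoform levels, housekeeper-normalized (GAPDH/GUSB/PPIA), ΔΔCt vs DMSO, converted to RQ then % response. Cells: A673 (DMEM/10% FBS, adhered 24 h) or K562 (IMDM/10% FBS). Compound 11-pt 3-fold, top 10 uM, 24 h, 37 °C.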

HTT mRNA = assay: RT-qPCR splicing assay, HTT mRNA canonical (CJ) and alternative (AJ) junction; format: cell-based, human; conditions: Homo sapiens; for AC50: HTT alternative junction mRNA, read-out: HTT AJ (increase in AJ mRNA, AC50)
In short: as §1

[1] = HTT canonical junction mRNA, RT-qPCR, read-out: HTT CJ (decrease in CJ mRNA levels, IC50)
[2] = canonical junction qPCR panel, Table 4, read-out: HTT IC50 (decrease in CJ mRNA levels)

IC50 (Target C) | IC50 (SMN2 mRNA) | IC50 (HTT mRNA; [1]) | IC50 (HTT mRNA; [2]) | SMILES | AC50 (HTT mRNA; RT-qPCR)
0.1 to 1 µM | < 0.1 µM | < 0.1 µM | < 0.1 µM | CN[C@@H]1CCN(c2ccc3nc(-c4cc5cn(C)nc5c(F)c4O)nc(C4CC4)c3c2)C1 [Compound 543, 5-{4-cyclopropyl-6-[(3R)-3-(methylamino)pyrrolidin-1-yl]quinazolin-2-yl}-7-fluoro-2-methylindazol-6-ol] | < 0.1 µM
> 10 µM | < 0.1 µM | 0.1 to 1 µM | 0.1 to 1 µM | CNC(=O)c1nc(-c2cc3cn(C)nc3c(C)c2O)nc2ccc(N3C[C@H](C)N[C@@H](C)C3)cc12 [Compound 652, 6-[(3S,5S)-3,5-dimethylpiperazin-1-yl]-2-(6-hydroxy-2,7-dimethylindazol-5-yl)-N-methylquinazoline-4-carboxamide] | 0.1 to 1 µM
> 10 µM | < 0.1 µM | 0.1 to 1 µM | 0.1 to 1 µM | CNC(=O)c1nc(-c2cc3cn(C)nc3c(C)c2O)nc2ccc(N3CCC(N4CCC4)CC3)cc12 [Compound 706] | 1 to 10 µM
> 10 µM | < 0.1 µM | 1 to 10 µM | 1 to 10 µM | C[C@@H]1CN(c2ccc3nc(-c4cc5cn(C)nc5c(F)c4O)nc(C(N)=O)c3c2)C[C@H](C)N1 [Compound 712, 6-[(3R,5S)-3,5-dimethylpiperazin-1-yl]-2-(7-fluoro-6-hydroxy-2-methylindazol-5-yl) quinazoline-4-carboxamide] | 1 to 10 µM
0.1 to 1 µM | < 0.1 µM | 0.1 to 1 µM | 0.1 to 1 µM | CC(=O)c1nc(-c2cc3cn(C)nc3c(F)c2O)nc2ccc(N3C[C@@H](C)N[C@@H](C)C3)cc12 [Compound 717, 1-{6-[(3R,5S)-3,5-dimethylpiperazin-1-yl]-2-(7-fluoro-6-hydroxy-2-methylindazol-5-yl)quinazolin-4-yl}ethanone] | 0.1 to 1 µM
0.1 to 1 µM | < 0.1 µM | < 0.1 µM | < 0.1 µM | CNC(=O)c1nc(-c2cc3cn(C)nc3c(F)c2O)nc2ccc(N3CCC(N4CCC4)CC3)cc12 [Compound 722, 6-[4-(azetidin-1-yl)piperidin-1-yl]-2-(7-fluoro-6-hydroxy-2-methylindazol-5-yl)-N-methylquinazoline-4-carboxamide] | 0.1 to 1 µM
1 to 10 µM | < 0.1 µM | 0.1 to 1 µM | 0.1 to 1 µM | CNC(=O)c1nc(-c2cc3cn(C)nc3c(F)c2O)nc2ccc(N3CCNC4(CC4)C3)cc12 [Compound 728, 6-{4,7-diazaspiro[2.5]octan-7-yl}-2-(7-fluoro-6-hydroxy-2-methylindazol-5-yl)-N-methylquinazoline-4-carboxamide] | 0.1 to 1 µM
< 0.1 µM | < 0.1 µM | < 0.1 µM | < 0.1 µM | CNC(=O)c1nc(-c2cc3cn(C)nc3c(F)c2O)nc2ccc(N3CC[C@@H](NC)C3)cc12 [Compound 729, 2-(7-fluoro-6-hydroxy-2-methylindazol-5-yl)-N-methyl-6-[(3R)-3-(methylamino)pyrrolidin-1-yl]quinazoline-4-carboxamide] | < 0.1 µM

The next lines start with the compound.

SMILES | IC50 (Target C) | IC50 (SMN2 mRNA) | IC50 (HTT mRNA; [1]) | IC50 (HTT mRNA; [2]) | AC50 (HTT mRNA; RT-qPCR)
Cc1c(O)c(-c2nc(-c3nn[nH]n3)c3cc(N4CCNCC4)ccc3n2)cc2cn(C)nc12 [Compound 541, 2,7-dimethyl-5-[6-(piperazin-1-yl)-4-(2H-1,2,3,4-tetrazol-5-yl)quinazolin-2-yl]indazol-6-ol] | 1 to 10 µM | 1 to 10 µM | 1 to 10 µM | 1 to 10 µM | 1 to 10 µM
C[C@@H]1CN(c2ccc3nc(-c4cc5cn(C)nc5c(F)c4O)nc(C4CC4)c3c2)C[C@H](C)N1 [Compound 542, 5-{4-cyclopropyl-6-[(3R,5S)-3,5-dimethylpiperazin-1-yl]quinazolin-2-yl}-7-fluoro-2-methylindazol-6-ol] | > 10 µM | < 0.1 µM | 1 to 10 µM | 1 to 10 µM | 1 to 10 µM
Cc1cn2cc(-c3ccc4cc(N5C[C@@H](C)N[C@@H](C)C5)cc(F)c4n3)cc(F)c2n1 [Compound 544, 6-[(3R,5S)-3,5-dimethylpiperazin-1-yl]-8-fluoro-2-{8-fluoro-2-methylimidazo[1,2-a]pyridin-6-yl}quinoline] | 1 to 10 µM | < 0.1 µM | 0.1 to 1 µM | 0.1 to 1 µM | 0.1 to 1 µM
Cc1c(O)c(-c2ncc3cc(N4C[C@H](C)N[C@@H](C)C4)ccc3n2)cc2cn(C)nc12 [Compound 660, 5-{6-[(3S,5S)-3,5-dimethylpiperazin-1-yl]quinazolin-2-yl}-2,7-dimethylindazol-6-ol] | 1 to 10 µM | < 0.1 µM | 0.1 to 1 µM | 0.1 to 1 µM | 0.1 to 1 µM
C[C@@H]1CN(c2ccc3nc(-c4cc5cn(C)nc5c(F)c4O)nc(C#N)c3c2)C[C@H](C)N1 [Compound 707, 6-[(3R,5S)-3,5-dimethylpiperazin-1-yl]-2-(7-fluoro-6-hydroxy-2-methylindazol-5-yl) quinazoline-4-carbonitrile] | 0.1 to 1 µM | < 0.1 µM | 0.1 to 1 µM | 0.1 to 1 µM | 0.1 to 1 µM
Cc1cc(N2C[C@@H](C)N[C@@H](C)C2)cc2c(Cl)cc(-c3cc4cn(C)nc4c(F)c3O)nc12 [Compound 723, 5-{4-chloro-6-[(3R,5S)-3,5-dimethylpiperazin-1-yl]-8-methylquinolin-2-yl}-7-fluoro-2-methylindazol-6-ol] | 0.1 to 1 µM | < 0.1 µM | < 0.1 µM | < 0.1 µM | 0.1 to 1 µM
C[C@@H]1CN(c2ccc3nc(-c4cc5cn(C)nc5c(F)c4O)nc(-c4nccs4)c3c2)C[C@H](C)N1 [Compound 732, 5-{6-[(3R,5S)-3,5-dimethylpiperazin-1-yl]-4-(1,3-thiazol-2-yl)quinazolin-2-yl}-7-fluoro-2-methylindazol-6-ol] | > 10 µM | 0.1 to 1 µM | > 10 µM | > 10 µM | > 10 µM
C[C@@H]1CN(c2ccc3nc(-c4cc5cn(C)nc5c(F)c4O)nc(C(=O)NCCO)c3c2)C[C@H](C)N1 [Compound 737, 6-[(3R,5S)-3,5-dimethylpiperazin-1-yl]-2-(7-fluoro-6-hydroxy-2-methylindazol-5-yl)-N-(2-hydroxyethyl)quinazoline-4-carboxamide] | 1 to 10 µM | < 0.1 µM | 1 to 10 µM | 1 to 10 µM | 1 to 10 µM
CNC(=O)c1nc(-c2cc3cn(C)nc3cc2O)nc2ccc(N3CCC(N(C)C)CC3)cc12 [Compound 742, 6-[4-(dimethylamino)piperidin-1-yl]-2-(6-hydroxy-2-methylindazol-5-yl)-N-methylquinazoline-4-carboxamide] | > 10 µM | < 0.1 µM | 0.1 to 1 µM | 0.1 to 1 µM | > 10 µM
C[C@@H]1CN(c2ccc3nc(-c4cc5cn(C)nc5c(F)c4O)ncc3c2)C[C@H](C)N1 [Compound 743, 5-{6-[(3R,5S)-3,5-dimethylpiperazin-1-yl]quinazolin-2-yl}-7-fluoro-2-methylindazol-6-ol] | 1 to 10 µM | 1 to 10 µM | > 10 µM | > 10 µM | 1 to 10 µM
